From PubChem BioAssay (NCI)
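Step 1: Grow cells in 96-well plates. Step 2: Expose to compound for 48 hours at 5 concentrations. Step 3: Interpolate endpoints linearly; if unreached, use highest concentration. At the TGI there is no net growth.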

Columns and labels:
Assay in all cases: NCI tumour cell line growth inhibition, 48 h
IGROV1 ovarian = system: IGROV1 ovarian
MALME-3M melanoma = system: MALME-3M melanoma
MOLT-4 leukemia = system: MOLT-4 leukemia
SR leukemia = system: SR leukemia
T-47D breast = system: T-47D breast
OVCAR-3 ovarian = system: OVCAR-3 ovarian
MDA-N = system: MDA-N
SN12C renal = system: SN12C renal
786-0 renal = system: 786-0 renal
HCT-15 colon = system: HCT-15 colon
SNB-75 CNS = system: SNB-75 CNS
ACHN renal = system: ACHN renal
LOX IMVI melanoma = system: LOX IMVI melanoma
HOP-62 NSCLC = system: HOP-62 NSCLC
SW-620 colon = system: SW-620 colon
MCF7 breast = system: MCF7 breast
TK-10 renal = system: TK-10 renal
HT29 colon = system: HT29 colon
CCRF-CEM leukemia = system: CCRF-CEM leukemia
SK-OV-3 ovarian = system: SK-OV-3 ovarian
HCT-116 colon = system: HCT-116 colon
BT-549 breast = system: BT-549 breast
HOP-92 NSCLC = system: HOP-92 NSCLC
UACC-62 melanoma = system: UACC-62 melanoma
SNB-19 CNS = system: SNB-19 CNS
UACC-257 melanoma = system: UACC-257 melanoma
SK-MEL-5 melanoma = system: SK-MEL-5 melanoma
U251 CNS = system: U251 CNS
NCI-H460 lung = system: NCI-H460 lung
OVCAR-4 ovarian = system: OVCAR-4 ovarian
NCI/ADR-RES ovarian = system: NCI/ADR-RES ovarian
HCC-2998 colon = system: HCC-2998 colon
CAKI-1 renal = system: CAKI-1 renal
NCI-H226 lung = system: NCI-H226 lung
A498 renal = system: A498 renal
HS 578T breast = system: HS 578T breast
KM12 colon = system: KM12 colon
MDA-MB-231 breast = system: MDA-MB-231 breast
SK-MEL-2 melanoma = system: SK-MEL-2 melanoma
M14 melanoma = system: M14 melanoma
NCI-H522 lung = system: NCI-H522 lung
MDA-MB-435 = system: MDA-MB-435
SK-MEL-28 melanoma = system: SK-MEL-28 melanoma
EKVX NSCLC = system: EKVX NSCLC
A549 NSCLC = system: A549 NSCLC
COLO 205 colon = system: COLO 205 colon
DU-145 prostate = system: DU-145 prostate
OVCAR-8 ovarian = system: OVCAR-8 ovarian
HL-60(TB) leukemia = system: HL-60(TB) leukemia
NCI-H23 lung = system: NCI-H23 lung
UO-31 renal = system: UO-31 renal
K-562 leukemia = system: K-562 leukemia
OVCAR-5 ovarian = system: OVCAR-5 ovarian
SF-268 CNS = system: SF-268 CNS
RXF 393 renal = system: RXF 393 renal
PC-3 prostate = system: PC-3 prostate
SF-295 CNS = system: SF-295 CNS
RPMI-8226 leukemia = system: RPMI-8226 leukemia
SF-539 CNS = system: SF-539 CNS

CCCCCCCCCCCCCCCCOP(=O)(O)OP(=O)(O)OCC1OC(n2cnc3c(N)ncnc32)C(O)C1O (stereo unspecified)
TGI (IGROV1 ovarian): > 100 µM
TGI (MALME-3M melanoma): > 100 µM
TGI (MOLT-4 leukemia): > 100 µM
TGI (SR leukemia): 78.3 µM
TGI (T-47D breast): > 100 µM
TGI (OVCAR-3 ovarian): > 100 µM
TGI (MDA-N): > 100 µM
TGI (SN12C renal): > 100 µM
TGI (786-0 renal): > 100 µM
TGI (HCT-15 colon): > 100 µM
TGI (SNB-75 CNS): 61.8 µM
TGI (ACHN renal): > 100 µM
TGI (LOX IMVI melanoma): > 100 µM
TGI (HOP-62 NSCLC): > 100 µM
TGI (SW-620 colon): > 100 µM
TGI (MCF7 breast): > 100 µM
TGI (TK-10 renal): > 100 µM
TGI (HT29 colon): > 100 µM
TGI (CCRF-CEM leukemia): 86.6 µM
TGI (SK-OV-3 ovarian): > 100 µM
TGI (HCT-116 colon): > 100 µM
TGI (BT-549 breast): 36.9 µM
TGI (HOP-92 NSCLC): 36.7 µM
TGI (UACC-62 melanoma): > 100 µM
TGI (SNB-19 CNS): > 100 µM
TGI (UACC-257 melanoma): > 100 µM
TGI (SK-MEL-5 melanoma): > 100 µM
TGI (U251 CNS): > 100 µM
TGI (NCI-H460 lung): > 100 µM
TGI (OVCAR-4 ovarian): > 100 µM
TGI (NCI/ADR-RES ovarian): > 100 µM
TGI (HCC-2998 colon): > 100 µM
TGI (CAKI-1 renal): > 100 µM
TGI (NCI-H226 lung): > 100 µM
TGI (A498 renal): > 100 µM
TGI (HS 578T breast): > 100 µM
TGI (KM12 colon): > 100 µM
TGI (MDA-MB-231 breast): > 100 µM
TGI (SK-MEL-2 melanoma): > 100 µM
TGI (M14 melanoma): > 100 µM
TGI (NCI-H522 lung): 92.8 µM
TGI (MDA-MB-435): > 100 µM
TGI (SK-MEL-28 melanoma): 64 µM
TGI (EKVX NSCLC): > 100 µM
TGI (A549 NSCLC): > 100 µM
TGI (COLO 205 colon): > 100 µM
TGI (DU-145 prostate): > 100 µM
TGI (OVCAR-8 ovarian): > 100 µM
TGI (HL-60(TB) leukemia): > 100 µM
TGI (NCI-H23 lung): > 100 µM
TGI (UO-31 renal): > 100 µM
TGI (K-562 leukemia): > 100 µM
TGI (OVCAR-5 ovarian): 47.4 µM
TGI (SF-268 CNS): > 100 µM
TGI (RXF 393 renal): > 100 µM
TGI (PC-3 prostate): > 100 µM

O=C(O)c1[nH]c(=O)[nH]c(=O)c1CN1CCCCC1
TGI (IGROV1 ovarian): > 100 µM
TGI (MALME-3M melanoma): > 100 µM
TGI (SR leukemia): > 100 µM
TGI (T-47D breast): > 100 µM
TGI (OVCAR-3 ovarian): > 100 µM
TGI (MDA-N): > 100 µM
TGI (SN12C renal): > 100 µM
TGI (786-0 renal): > 100 µM
TGI (HCT-15 colon): > 100 µM
TGI (SNB-75 CNS): > 100 µM
TGI (ACHN renal): > 100 µM
TGI (LOX IMVI melanoma): > 100 µM
TGI (HOP-62 NSCLC): > 100 µM
TGI (SW-620 colon): > 100 µM
TGI (MCF7 breast): > 100 µM
TGI (TK-10 renal): > 100 µM
TGI (HT29 colon): > 100 µM
TGI (CCRF-CEM leukemia): > 100 µM
TGI (SK-OV-3 ovarian): > 100 µM
TGI (HCT-116 colon): > 100 µM
TGI (BT-549 breast): > 100 µM
TGI (HOP-92 NSCLC): > 100 µM
TGI (UACC-62 melanoma): > 100 µM
TGI (SF-295 CNS): > 100 µM
TGI (SNB-19 CNS): > 100 µM
TGI (UACC-257 melanoma): > 100 µM
TGI (SK-MEL-5 melanoma): > 100 µM
TGI (U251 CNS): > 100 µM
TGI (NCI-H460 lung): > 100 µM
TGI (OVCAR-4 ovarian): > 100 µM
TGI (NCI/ADR-RES ovarian): > 100 µM
TGI (HCC-2998 colon): > 100 µM
TGI (CAKI-1 renal): > 100 µM
TGI (NCI-H226 lung): > 100 µM
TGI (A498 renal): > 100 µM
TGI (HS 578T breast): > 100 µM
TGI (KM12 colon): > 100 µM
TGI (MDA-MB-231 breast): > 100 µM
TGI (SK-MEL-2 melanoma): > 100 µM
TGI (M14 melanoma): > 100 µM
TGI (NCI-H522 lung): > 100 µM
TGI (MDA-MB-435): > 100 µM
TGI (SK-MEL-28 melanoma): > 100 µM
TGI (EKVX NSCLC): > 100 µM
TGI (A549 NSCLC): > 100 µM
TGI (COLO 205 colon): > 100 µM
TGI (DU-145 prostate): > 100 µM
TGI (OVCAR-8 ovarian): > 100 µM
TGI (HL-60(TB) leukemia): > 100 µM
TGI (NCI-H23 lung): > 100 µM
TGI (UO-31 renal): > 100 µM
TGI (K-562 leukemia): > 100 µM
TGI (OVCAR-5 ovarian): > 100 µM
TGI (SF-268 CNS): > 100 µM
TGI (RXF 393 renal): > 100 µM
TGI (RPMI-8226 leukemia): > 100 µM
TGI (PC-3 prostate): > 100 µM

O=C1C(=Cc2cccc(Cl)c2)N=C(c2ccccc2)N1n1c(-c2ccccc2)nc2ccccc2c1=O
TGI (IGROV1 ovarian): > 100 µM
TGI (MALME-3M melanoma): > 100 µM
TGI (MOLT-4 leukemia): > 100 µM
TGI (SR leukemia): > 100 µM
TGI (T-47D breast): > 100 µM
TGI (OVCAR-3 ovarian): > 100 µM
TGI (MDA-N): > 100 µM
TGI (SN12C renal): > 100 µM
TGI (786-0 renal): > 100 µM
TGI (HCT-15 colon): > 100 µM
TGI (SNB-75 CNS): > 100 µM
TGI (ACHN renal): > 100 µM
TGI (LOX IMVI melanoma): > 100 µM
TGI (HOP-62 NSCLC): 99.8 µM
TGI (SF-539 CNS): > 100 µM
TGI (SW-620 colon): > 100 µM
TGI (MCF7 breast): > 100 µM
TGI (TK-10 renal): > 100 µM
TGI (HT29 colon): > 100 µM
TGI (CCRF-CEM leukemia): > 100 µM
TGI (SK-OV-3 ovarian): > 100 µM
TGI (HCT-116 colon): > 100 µM
TGI (BT-549 breast): > 100 µM
TGI (HOP-92 NSCLC): 81.4 µM
TGI (UACC-62 melanoma): 96.2 µM
TGI (SF-295 CNS): > 100 µM
TGI (SNB-19 CNS): > 100 µM
TGI (UACC-257 melanoma): > 100 µM
TGI (SK-MEL-5 melanoma): > 100 µM
TGI (U251 CNS): > 100 µM
TGI (NCI-H460 lung): > 100 µM
TGI (OVCAR-4 ovarian): > 100 µM
TGI (NCI/ADR-RES ovarian): > 100 µM
TGI (HCC-2998 colon): > 100 µM
TGI (CAKI-1 renal): > 100 µM
TGI (NCI-H226 lung): > 100 µM
TGI (HS 578T breast): > 100 µM
TGI (KM12 colon): > 100 µM
TGI (MDA-MB-231 breast): > 100 µM
TGI (SK-MEL-2 melanoma): > 100 µM
TGI (M14 melanoma): 54.5 µM
TGI (NCI-H522 lung): 51.7 µM
TGI (MDA-MB-435): > 100 µM
TGI (SK-MEL-28 melanoma): > 100 µM
TGI (EKVX NSCLC): > 100 µM
TGI (A549 NSCLC): > 100 µM
TGI (COLO 205 colon): > 100 µM
TGI (DU-145 prostate): > 100 µM
TGI (OVCAR-8 ovarian): > 100 µM
TGI (HL-60(TB) leukemia): > 100 µM
TGI (NCI-H23 lung): 68.6 µM
TGI (UO-31 renal): > 100 µM
TGI (K-562 leukemia): > 100 µM
TGI (OVCAR-5 ovarian): > 100 µM
TGI (SF-268 CNS): > 100 µM
TGI (RXF 393 renal): > 100 µM
TGI (RPMI-8226 leukemia): > 100 µM
TGI (PC-3 prostate): > 100 µM
